Patent US8093209B2, “Methods of suppressing microglial activation and systemic inflammatory responses” (Cognosci, Incorporated, priority 2002, dated 2012)

Assays:
[1] = test system: primary rat neuronal/glial cultures exposed to NMDA; assay: NMDA-induced 45Ca uptake by primary neuronal-glial cultures; assay type: cell-based; conditions: 6 μM peptide
Method: (§1) Primary neuronal-glial cultures were prepared from fetal Sprague-Dawley rat brains at 18 days of gestation as previously described (Pearlstein et al., 1998). Brains were harvested from 10-15 pups and dissected to separate cortex from meninges and subcortical structures using anatomical landmarks. Cortices were pooled and minced into 2 mm^3 pieces in a buffered salt solution supplemented with 20 mM HEPES buffer, pH 7.4, containing 0.25% trypsin. The tissue was incubated for 20 minutes at 37° C. in a 5% CO2/95% room air atmosphere, and washed twice with ice-cold, glutamine-free minimum essential medium (MEM; Life Technologies) containing 15 mM glucose, 5% fetal bovine serum (GIBCO), 5% horse serum (GIBCO), and 1% DNase-I (Sigma Chemical Co., St. Louis, Mo., USA). Tissue pieces were dissociated by trituration through a fire-polished 9-inch Pasteur pipette (I.D.=0.7 mm). The resultant suspension was centrifuged at 50×g for 10 min, the supernatant discarded, and the pellet resuspended in growth medium (MEM supplemented with 15 mM glucose, 5% fetal bovine serum, and 5% horse serum). The dissociated cells were plated to achieve a confluent monolayer using 4×10^5 cells per well in poly-D-lysine coated, 24-well culture plates (Falcon 3047; Becton Dickinson Co., Lincoln Park, N.J., USA). Cultures were maintained undisturbed at 37° C. in a humidified 5% CO2/95% room air atmosphere for 13-16 days prior to use.
Cellular calcium uptake from the extracellular space was assessed using ^45CaCl2 (American Radiolabeled Chemicals, St. Louis, Mo.). After washing the cultures with Mg^2+-free BSS containing 20 mM HEPES buffer, 6 μM peptide or 10 μM MK-801 was added to each well prior to and removed at the end of 100 μM NMDA exposure. ^45Ca (0.28 μCi/ml, 0.9 μCi/well) was added to each well immediately prior to NMDA exposure. The cultures were returned to the incubator and maintained at 37° C. Twenty minutes later, the exposure medium was removed and each well was washed 3 times with ice-cold Mg^2+-free BSS containing 20 mM HEPES buffer. The cells were subsequently lysed by addition of 0.2% sodium dodecyl sulfate (SDS). An aliquot from each well was added to a liquid scintillation vial containing 10 ml Cytoscint™ (ICN, Biochemical Research Product, CA) and radioactivity was determined by scintillation counting and normalized to cell count.

[2] = test system: primary rat neuronal/glial cultures exposed to NMDA; assay: NMDA-induced LDH release in primary neuronal-glial cultures; assay type: cell-based
Method: as §1
Mature cultures (13-16 days in vitro) were washed with Mg^2+-free buffered salt solution (BSS) containing 20 mM HEPES buffer (pH7.4) and 1.8 mM CaCl2, prior to the addition of NMDA. Following NMDA exposure, cultures were maintained for 30 minutes at 37° C. in a 5% CO2/95% air atmosphere. The medium containing NMDA was then removed and replaced with MEM supplemented with 20 mM glucose. The cultures were returned to the incubator for 24 h. In all experiments, cellular damage was assessed at 24 h after exposure to NMDA by measurement of the activity of lactate dehydrogenase (LDH) released into the medium as described below. The non-competitive NMDA receptor antagonist, MK-801 (Tocris Cookson Ins., St. Louis, Mo.) at a concentration of 10 μM was used as a positive control. Preliminary dose-response studies were performed to determine the concentration of NMDA (100 μM) required to effect a near-maximal LDH release (ED90) as used in the present study.
The effect of human recombinant apoE (Panverra, Madison, Wis.) on 100 μM NMDA-induced LDH release was assessed and the dose-response curve was obtained (apoE: 0.1-10 μM final concentration). ApoE3, the most common human isoform, was added to the cultures 30 minutes prior to and removed following NMDA exposure. The effect of apoE peptide (133-149) on NMDA (100 μM or 300 μM)-induced LDH release was next assessed and the dose-response curve was obtained in a separate set of sister cultures that were simultaneously treated under one of the following conditions: (1) various doses of peptide (0.3 μM, 1 μM, 3 μM, 6 μM, 10 μM final concentration) were added to the culture immediately prior to and removed at the end of NMDA exposure; (2) no peptide, NMDA exposure; (3) no peptide, no NMDA exposure; (4) no peptide, NMDA exposure with 10 μM MK-801 for 30 minutes. The effect of a scrambled control peptide on NMDA-induced LDH release was similarly assessed.
The effect of time of administration of apoE peptide (133-149) on NMDA-induced LDH release was assessed in a separate set of sister cultures that were simultaneously treated under one of following conditions: (1) peptide was added to the culture medium 24 h prior to and removed immediately before exposure to NMDA; (2) peptide was added immediately prior to and removed at the end of the NMDA exposure; (3) peptide was added immediately following the 30 minutes NMDA exposure; (4) no peptide, NMDA exposure; (5) no peptide, no NMDA exposure. […]

[3] = test system: mice with midline closed head injury; assay: Murine closed head injury model (rotorod, weight, Morris Water Maze, survival); assay type: in vivo, mouse
Excerpt: The mice received a midline closed head injury delivered by a pneumatic impactor at a speed of 6.8 m/s.

[4] = test system: LPS-induced serum TNFα and IL-6 in C57-BL6 mice; assay: Intravenous LPS sepsis model, serum TNFα and IL-6 by ELISA; assay type: in vivo, mouse; conditions: peptide 6.6 mg/kg, LPS 375 μg/kg i.v.
Method: In these methods, 14-16 week old male C57-BL6 mice were injected with LPS (11.25 μg in 150 μl sterile isotonic saline, or 375 μg/kg) via the tail vein, and then immediately with vehicle (isotonic sterile saline) or ApoE (133-149) (at a dose of 200 μg, in 100 μl, or 6.6 mg/kg, prepared in isotonic saline). Serum samples were obtained in both LPS+vehicle and LPS+peptide groups (n=10 animals/group) at the following timepoints: time 0 (prior to injection), 1 hour, 3 hour and 24 hours after injection. Blood was collected by transcardial puncture, and allowed to clot for 30 minutes. Serum samples, obtained after centrifugation at 16,000 g for 5 minutes, were screened by solid phase ELISA for TNFα and IL-6. There were 20 animals per time point.

peritoneal macrophage = assay: Intracellular calcium in Fura-2/AM loaded peritoneal macrophage (Example 4); assay type: cell-based, mouse; conditions: preincubation with 100 molar excess of RAP
Method: Thioglycolate-elicited peritoneal macrophage were harvested from 8-week old C57-BL6 mice, and plated at a density of 4×10^3 cells on glass coverslips, loaded with 2.5 μM Fura-2/AM for thirty minutes, and washed with Hanks buffered solution containing […] calcium. After exposure to 5 nM human recombinant apoE3 or E4, intracellular calcium was measured by Zeiss digital microscopy.

[5] = test system: thioglycollate-elicited peritoneal macrophages; assay: [Ca2+]i in Fura-2/AM treated single macrophages, digital imaging microscopy (Example 10); assay type: cell-based, mouse; conditions: 1000-fold molar excess RAP, 10 mM NiCl2, or 1 μg/ml pertussis toxin 12 h
Method: Macrophage Harvesting. All experiments involving animals were first approved by the Duke Institutional Animal Care and Use Committee. Pathogen-free female C57BL/6 mice and ApoE deficient mice previously backcrossed 10 times to the C57BL/6 strain were obtained from the Jackson Laboratory (Bar Harbor, Me.). Thioglycollate-elicited peritoneal macrophages were harvested by peritoneal lavage using 10 ml of ice-cold Hanks' balanced salt solution containing 10 mM HEPES and 3.5 mM NaHCO3 (HHBSS), pH 7.4. The macrophages were pelleted by centrifugation at 4° C. at ˜800×g for 10 min and resuspended in RPMI 1640 media supplemented with 25 mM HEPES, 12.5 U/ml penicillin, 6.5 mg/ml streptomycin, and 5% fetal bovine serum.
Measurement of [Ca^2+]i in apoE and peptide treated macrophage. Changes in [Ca^2+]i levels in Fura-2/AM treated single cells were quantified using digital imaging microscopy in accordance with known techniques. Macrophages were plated on glass coverslips sitting in 35 mm Petri dishes at a density of 1.5×10^5 cells/cm^2, and allowed to adhere for 2 h in a humidified 5% CO2 incubator at 37° C. The non-adherent cells were aspirated and the monolayers were washed twice with HHBSS. 4 μM Fura-2/AM was incubated with the cells for thirty min in the dark at room temperature and [Ca^2+]i was subsequently measured using a digital imaging microscope in accordance with known techniques. […] To determine if signaling resulted from ligation of the ligand to LRP, cells were preincubated with a 1000-fold molar excess of RAP or 10 mM NiCl2, both of which inhibit ligand binding to LRP, for 5 min prior to stimulation with apoE or peptide. In experiments in which the involvement of a G protein was assessed, monolayers were incubated with 1 μg/ml pertussis toxin for 12 h at 37° C. and Ca^2+ measurements were made as stated above.

Molecule: LRVRLAS HLRKLRKRLL (LRVRLASHLRKLRKRLL; fragment of receptor-binding domain of human ApoE; listed as Homo sapiens) [ApoE (133-149), 17-mer, ApoE positions 133-149]
- NMDA-induced calcium influx compared to NMDA alone ([1]; 100 μM NMDA): significantly decreased calcium influx
- calcium influx in absence of NMDA ([1]; no NMDA): no direct effect on calcium influx
- protection against NMDA (LDH release), timing ([2]; 6 μM peptide 24 hours prior to NMDA exposure): modest but significant protection
- protection against NMDA (LDH release), timing ([2]; 6 μM peptide added following NMDA exposure): no protection
- protection against NMDA (LDH release), timing ([2]; 6 μM peptide concurrent with 100 μM NMDA): robust protection
- protection against NMDA-induced cell damage, truncated peptides ([2]; 6 μM peptide, 100 μM NMDA): completely blocked 100 μM NMDA-induced cell death
- peptide concentration at which protection was first observed ([2]; 100 μM NMDA): 3 μm
- peptide concentration of maximal protection ([2]; 100 μM NMDA): 6 µM
- protection against NMDA toxicity (LDH release) ([2]; 300 μM NMDA): failed to protect cells at any peptide concentration
- protection against NMDA toxicity (LDH release), dose response ([2]; peptide 0.3-10 μM, 100 μM NMDA): robust, dose-dependent protection
- learning to find hidden platform, Morris Water Maze ([3]; 21 days after injury, p<0.05): appeared to provide protection in learning deficits
- weight loss after closed head injury ([3]; high dose 406 ug/kg i.v.): protected animals from this motor deficit (FIG. 10A), and concomitant weight loss
- rotorod latency (motor deficit) after closed head injury ([3]; high dose 406 ug/kg i.v. 30 min after injury): protected animals from this motor deficit
- acute survival, Kaplan-Meier analysis ([3]; mouse, in vivo): significant improvement in acute survival
- duration of protective effect of single dose ([3]; p<0.05): sustained for five days following injury
- serum IL-6 versus LPS+vehicle ([4]; 1 and 3 hours post-injection): significantly reduced
- serum TNFα versus LPS+vehicle ([4]; 1 hour post-injection): significantly reduced

B1: RAP: 39 kD protein that blocks the binding of all known ligands to LRP (protein, UniProt P30533 35-357, looked up)
Alpha-2-macroglobulin …: YSREKNQPKPSPKRESGEEFRMEKLNQLWEKAQRLHLPPVRLAELHADLKIQERDELAWKKLKLDGLDEDGEKEARLIRNLNVILAKYGLDGKKDARQVTSNSLSGTQEDGLDDPRLEKLWHKAKTSGKFSGEELDKLWREFLHHKEKVHEYNVLLETLSRTEEIHENVISPSDLSDIKGSVLHSRHTELKEKLRSINQGLDRLRRVSHQGYSTEAEFEEPRVIDLWDLAQSANLTDKELEAFREELKHFEAKIEKHNHYQKQLEIAHEKLRHAESVGDGERVSRSREKHALLEGRTKELGYTVKKHLQDLSGRISRARHNEL
- block of ApoE-induced intracellular calcium mobilization (peritoneal macrophage): did not block this effect
- effect of preincubation on apoE-induced [Ca2+]i increase [5]: markedly attenuated the [Ca^2+]i increases
